Assay results: patent publication US11396522B2, “Bis-acetal-based substrates for imaging exo-glycosidase activity” (ALECTOS THERAPEUTICS INC., priority 2017, dated 2022)

Key:
[1] = molecular target: T1, GBA2 (Homo sapiens, UniProt Q9HCG7); experiment: In vitro kinetic assay with GBA2; assay type: biochemical; conditions: GBA enzymes at 50 nM
T1 sequence (Q9HCG7 1-927): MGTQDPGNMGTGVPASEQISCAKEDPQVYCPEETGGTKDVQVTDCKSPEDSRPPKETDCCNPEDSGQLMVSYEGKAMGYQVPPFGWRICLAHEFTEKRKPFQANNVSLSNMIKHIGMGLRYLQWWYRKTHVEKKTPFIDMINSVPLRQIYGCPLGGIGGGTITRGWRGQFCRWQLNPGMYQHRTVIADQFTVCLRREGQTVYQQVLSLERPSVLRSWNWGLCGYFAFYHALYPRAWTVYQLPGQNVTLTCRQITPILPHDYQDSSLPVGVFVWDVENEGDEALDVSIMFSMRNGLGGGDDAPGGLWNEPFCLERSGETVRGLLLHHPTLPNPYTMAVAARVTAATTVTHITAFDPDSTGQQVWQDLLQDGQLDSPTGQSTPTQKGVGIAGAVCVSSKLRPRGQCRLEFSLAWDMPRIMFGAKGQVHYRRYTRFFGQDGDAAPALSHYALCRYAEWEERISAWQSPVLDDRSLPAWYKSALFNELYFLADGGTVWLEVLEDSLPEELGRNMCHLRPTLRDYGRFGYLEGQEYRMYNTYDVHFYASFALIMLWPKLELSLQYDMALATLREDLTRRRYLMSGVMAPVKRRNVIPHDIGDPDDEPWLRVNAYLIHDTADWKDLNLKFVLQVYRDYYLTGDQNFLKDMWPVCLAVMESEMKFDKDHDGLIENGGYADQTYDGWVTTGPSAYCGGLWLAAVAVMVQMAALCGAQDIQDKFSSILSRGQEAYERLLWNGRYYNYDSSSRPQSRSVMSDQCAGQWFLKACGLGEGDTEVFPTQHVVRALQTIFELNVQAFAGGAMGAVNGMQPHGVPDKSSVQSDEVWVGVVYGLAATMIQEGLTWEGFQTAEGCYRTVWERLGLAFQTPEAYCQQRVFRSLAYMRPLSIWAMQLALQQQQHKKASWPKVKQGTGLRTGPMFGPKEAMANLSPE

[2] = molecular target: T2, GBA3 (Homo sapiens, UniProt Q9H227); experiment: In vitro kinetic assay with GBA3; assay type: biochemical; conditions: GBA enzymes at 50 nM
T2 construct: purchased R&D Systems
T2 sequence (Q9H227 1-469): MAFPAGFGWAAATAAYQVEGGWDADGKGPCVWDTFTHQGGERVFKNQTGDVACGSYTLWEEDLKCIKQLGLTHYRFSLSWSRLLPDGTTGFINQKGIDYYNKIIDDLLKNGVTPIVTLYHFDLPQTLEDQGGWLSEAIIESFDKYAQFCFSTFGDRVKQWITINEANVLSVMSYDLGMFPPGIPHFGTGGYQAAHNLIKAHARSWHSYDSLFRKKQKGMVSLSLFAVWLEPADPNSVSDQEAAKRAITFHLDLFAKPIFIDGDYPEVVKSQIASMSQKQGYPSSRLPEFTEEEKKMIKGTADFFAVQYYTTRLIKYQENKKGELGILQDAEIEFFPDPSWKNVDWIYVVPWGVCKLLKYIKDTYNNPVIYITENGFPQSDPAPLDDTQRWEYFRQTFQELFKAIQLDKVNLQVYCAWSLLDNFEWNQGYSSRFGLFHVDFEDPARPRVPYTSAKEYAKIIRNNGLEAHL
Procedure: (§1) For some experiments, fluorescence kinetic assays were performed using a Varian Cary Eclipse Spectrophotometer set for 335/493 nm excitation/emission wavelengths. Slits were set at 10 nm and the detector was set on Medium voltage. Enzymatic reactions with human OGA were carried out in PBS at 37° C. and were started by addition of hOGA (WT, Full-length, expressed in E. coli. as previously described) in a total volume of 160 μL (Starna sub-micro Fluorometer cuvette). For measurements of rates using different concentrations of substrates, a hOGA concentration of 100 nM was used. For hOGA titration, 25 μM of Glyco-BABS were added to various concentration of hOGA. […] EDANS standard curve was established using endpoint fluorescence measurements of serial dilutions of EDANS in the relevant buffer using the same instrument parameters. Inner-Filter effect measurements were carried out in cuvette by measuring fluorescence of several concentrations of EDANS in presence of various concentrations of GlcNAc-BABS. Kinetics with Glc-BABS and GBA enzymes (GBA1 and GBA3 purchased from R&D Systems), kinetics with GALC (R&D systems) and Gal-BABS, pH stability, quenching efficiency, some inner-filter effect experiments and lysates experiments were carried out using a Molecular Devices SpectraMax i3× plate reader. […]

[3] = pH stability of Glyco-BABS; assay type: physicochemical; conditions: 5 μM, up to 72 h, pH 2 to 10
[4] = molecular target: T3, GBA1 (Homo sapiens, UniProt P04062); experiment: In vitro kinetic assay with GBA1; assay type: biochemical; design: purchased R&D Systems; conditions: GBA enzymes at 50 nM
T3 sequence (P04062 40-536): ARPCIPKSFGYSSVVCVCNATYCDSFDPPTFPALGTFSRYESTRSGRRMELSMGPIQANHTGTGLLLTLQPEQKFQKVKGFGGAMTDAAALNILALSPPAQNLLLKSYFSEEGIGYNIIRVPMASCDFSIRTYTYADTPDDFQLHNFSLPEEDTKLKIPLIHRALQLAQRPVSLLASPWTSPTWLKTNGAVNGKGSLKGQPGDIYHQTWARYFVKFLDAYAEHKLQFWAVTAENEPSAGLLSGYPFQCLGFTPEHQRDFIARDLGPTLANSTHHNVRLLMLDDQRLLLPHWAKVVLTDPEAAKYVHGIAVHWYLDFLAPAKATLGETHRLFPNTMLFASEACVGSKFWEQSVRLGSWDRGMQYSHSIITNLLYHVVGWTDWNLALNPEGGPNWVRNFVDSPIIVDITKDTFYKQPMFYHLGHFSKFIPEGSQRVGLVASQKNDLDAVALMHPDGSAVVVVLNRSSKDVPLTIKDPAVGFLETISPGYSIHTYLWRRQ
Procedure: as §1

turnover by GBA2 [1]: not turned over
turnover by GBA3 [2]: not turned over
pH stability (increase of fluorescence) [3]: no significant increase of fluorescence
turnover by GBA1 [4]: not turned over
Structure (SMILES): CN(C)c1ccc(/N=N/c2ccc(C(=O)NCc3cn(CCOCCO[C@H](O[C@@H]4O[C@H](CO)[C@@H](O)[C@H](O)[C@H]4O)[C@@](C)(O)C(=O)NCCNc4cccc5c(S(=O)(=O)O)cccc45)nn3)cc2)cc1 [Compound 6, 5-((2-((2R,3R)-3-(2-(2-(4-((4-((E)-(4-(dimethylamino)phenyl)diazenyl)benzamido)methyl)-1H-1,2,3-triazol-1-yl)ethoxy)ethoxy)-2-hydroxy-2-methyl-3-(((2S,3R,4S,5S,6R)-3,4,5-trihydroxy-6-(hydroxymethyl)tetrahydro-2H-pyran-2-yl)oxy)propanamido)ethyl)amino)naphthalene-1-sulfonic Acid]
